Patent US20230085307A1, “PYRIDAZINONE COMPOUND AND HERBICIDE” (NISSAN CHEMICAL CORPORATION, priority 2019, published 2023)

Tested on: Japanese bulrush
Assay: Test Example 1: herbicidal activity, application before weed generation under submerged conditions (Table 16, symbol B)
Assay type: in vivo, Japanese bulrush (Schoenoplectus juncoides)
Conditions: 320 g/ha applied herbicide
How it was run: (§1)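 Submerged Wagner pots (alluvial soil, 4 cm water) sown with weed seeds and planted with 2.5-leaf rice seedlings; emulsifiable concentrate diluted in water applied to water surface on sowing day. Held in greenhouse at 25-30 °C; injury scored 0-5 by herbicidal rate after three weeks.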

Structure (SMILES) | Herbicidal effect on B: Japanese bulrush (grade 0-5)
CCCCOc1ccc(-c2sc3ccc(F)cc3c2-c2c(O)c(C)nn(C)c2=O)cc1 [2-036] | 4 (Herbicidal rate of 70% or more and less than 90%)
CCCC(=O)Oc1c(C)nn(C)c(=O)c1-c1c(-c2ccc(OC(F)(F)F)cc2)sc2ccc(F)cc12 [2-046] | 4 (Herbicidal rate of 70% or more and less than 90%)
Cc1nn(C)c(=O)c(-c2c(-c3ccc(OCCF)cc3)sc3ccc(F)cc23)c1O [2-047] | 3 (Herbicidal rate of 40% or more and less than 70%)

Tested on: oval-leafed pondweed
Assay: Test Example 1: herbicidal activity, application before weed generation under submerged conditions (Table 16, symbol C)
Assay type: in vivo, oval-leafed pondweed (Monochoria vaginalis)
Conditions: 320 g/ha applied herbicide
How it was run: as §1

Structure (SMILES) | Herbicidal effect on C: oval-leafed pondweed (grade 0-5)
CCCCOc1ccc(-c2sc3ccc(F)cc3c2-c2c(O)c(C)nn(C)c2=O)cc1 [2-036] | 4 (Herbicidal rate of 70% or more and less than 90%)
CCCC(=O)Oc1c(C)nn(C)c(=O)c1-c1c(-c2ccc(OC(F)(F)F)cc2)sc2ccc(F)cc12 [2-046] | 3 (Herbicidal rate of 40% or more and less than 70%)
Cc1nn(C)c(=O)c(-c2c(-c3ccc(OCCF)cc3)sc3ccc(F)cc23)c1O [2-047] | 2 (Herbicidal rate of 20% or more and less than 40%)

Tested on: Japanese bulrush
Assay: Test Example 2: herbicidal activity, application during weed generation under submerged conditions (Table 17, symbol B)
Assay type: in vivo, Japanese bulrush (Schoenoplectus juncoides)
Conditions: AAH 320 g/ha; application during weed generation, submerged conditions
How it was run: (§2)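 Herbicide emulsion, diluted with water to the chosen amount, is applied onto 4 cm floodwater over alluvial soil where the weeds were co-sown and raised at 25–30° C. Application timing: 1–2 leaves. Assessment: three weeks afterwards.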

Structure (SMILES) | herbicidal effect rating, B: Japanese bulrush
CCCCOc1ccc(-c2sc3ccc(F)cc3c2-c2c(O)c(C)nn(C)c2=O)cc1 [2-036] | 3 (Herbicidal rate of 40% or more and less than 70%)
CCCC(=O)Oc1c(C)nn(C)c(=O)c1-c1c(-c2ccc(OC(F)(F)F)cc2)sc2ccc(F)cc12 [2-046] | 3 (Herbicidal rate of 40% or more and less than 70%)
Cc1nn(C)c(=O)c(-c2c(-c3ccc(OCCF)cc3)sc3ccc(F)cc23)c1O [2-047] | 3 (Herbicidal rate of 40% or more and less than 70%)

Tested on: oval-leafed pondweed
Assay: Test Example 2: herbicidal activity, application during weed generation under submerged conditions (Table 17, symbol C)
Assay type: in vivo, oval-leafed pondweed (Monochoria vaginalis)
Conditions: AAH 320 g/ha; application during weed generation, submerged conditions
How it was run: as §2

Structure (SMILES) | herbicidal effect rating, C: oval-leafed pondweed
CCCCOc1ccc(-c2sc3ccc(F)cc3c2-c2c(O)c(C)nn(C)c2=O)cc1 [2-036] | 3 (Herbicidal rate of 40% or more and less than 70%)
CCCC(=O)Oc1c(C)nn(C)c(=O)c1-c1c(-c2ccc(OC(F)(F)F)cc2)sc2ccc(F)cc12 [2-046] | 0 (Herbicidal rate of 5% or less (almost no effect))
Cc1nn(C)c(=O)c(-c2c(-c3ccc(OCCF)cc3)sc3ccc(F)cc23)c1O [2-047] | 2 (Herbicidal rate of 20% or more and less than 40%)

Tested on: green foxtail
Assay: Test Example 4: herbicidal effect by soil treatment (Table 19, symbol G)
Assay type: in vivo, green foxtail (Setaria viridis)
Conditions: 320 g/ha
How it was run: (§3)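 Applied as a water-diluted emulsion, the compound was sprayed onto soil covering newly sown seeds. Evaluation came three weeks after application, in a greenhouse held at 25° C. to 30° C.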

Structure (SMILES) | herbicidal effect rating, G: green foxtail
CCCCOc1ccc(-c2sc3ccc(F)cc3c2-c2c(O)c(C)nn(C)c2=O)cc1 [2-036] | 0 (Herbicidal rate of 5% or less (almost no effect))
CCCC(=O)Oc1c(C)nn(C)c(=O)c1-c1c(-c2ccc(OC(F)(F)F)cc2)sc2ccc(F)cc12 [2-046] | 4 (Herbicidal rate of 70% or more and less than 90%)
Cc1nn(C)c(=O)c(-c2c(-c3ccc(OCCF)cc3)sc3ccc(F)cc23)c1O [2-047] | 5 (Herbicidal rate of 90% or more (almost completely withered))

Tested on: barnyard grass
Assay: Test Example 4: herbicidal effect by soil treatment (Table 19, symbol H)
Assay type: in vivo, barnyard grass (Echinochloa crus-galli)
Conditions: 320 g/ha
How it was run: as §3

Structure (SMILES) | herbicidal effect rating, H: barnyard grass
CCCCOc1ccc(-c2sc3ccc(F)cc3c2-c2c(O)c(C)nn(C)c2=O)cc1 [2-036] | 0 (Herbicidal rate of 5% or less (almost no effect))
CCCC(=O)Oc1c(C)nn(C)c(=O)c1-c1c(-c2ccc(OC(F)(F)F)cc2)sc2ccc(F)cc12 [2-046] | 3 (Herbicidal rate of 40% or more and less than 70%)
Cc1nn(C)c(=O)c(-c2c(-c3ccc(OCCF)cc3)sc3ccc(F)cc23)c1O [2-047] | 5 (Herbicidal rate of 90% or more (almost completely withered))

Tested on: wild oat
Assay: Test Example 4: herbicidal effect by soil treatment (Table 19, symbol I)
Assay type: in vivo, wild oat (Avena fatua)
Conditions: 320 g/ha
How it was run: as §3

Structure (SMILES) | herbicidal effect rating, I: wild oat
CCCCOc1ccc(-c2sc3ccc(F)cc3c2-c2c(O)c(C)nn(C)c2=O)cc1 [2-036] | 0 (Herbicidal rate of 5% or less (almost no effect))
CCCC(=O)Oc1c(C)nn(C)c(=O)c1-c1c(-c2ccc(OC(F)(F)F)cc2)sc2ccc(F)cc12 [2-046] | 0 (Herbicidal rate of 5% or less (almost no effect))
Cc1nn(C)c(=O)c(-c2c(-c3ccc(OCCF)cc3)sc3ccc(F)cc23)c1O [2-047] | 2 (Herbicidal rate of 20% or more and less than 40%)

Tested on: redroot pigweed
Assay: Test Example 4: herbicidal effect by soil treatment (Table 19, symbol N)
Assay type: in vivo, redroot pigweed (Amaranthus retroflexus)
Conditions: 320 g/ha
How it was run: as §3

Structure (SMILES) | herbicidal effect rating, N: redroot pigweed
CCCCOc1ccc(-c2sc3ccc(F)cc3c2-c2c(O)c(C)nn(C)c2=O)cc1 [2-036] | 5 (Herbicidal rate of 90% or more (almost completely withered))
CCCC(=O)Oc1c(C)nn(C)c(=O)c1-c1c(-c2ccc(OC(F)(F)F)cc2)sc2ccc(F)cc12 [2-046] | 4 (Herbicidal rate of 70% or more and less than 90%)
Cc1nn(C)c(=O)c(-c2c(-c3ccc(OCCF)cc3)sc3ccc(F)cc23)c1O [2-047] | 5 (Herbicidal rate of 90% or more (almost completely withered))

Tested on: chickweed
Assay: Test Example 4: herbicidal effect by soil treatment (Table 19, symbol P)
Assay type: in vivo, common chickweed (Stellaria media)
Conditions: 320 g/ha
How it was run: as §3

Structure (SMILES) | herbicidal effect rating, P: chickweed
CCCCOc1ccc(-c2sc3ccc(F)cc3c2-c2c(O)c(C)nn(C)c2=O)cc1 [2-036] | 3 (Herbicidal rate of 40% or more and less than 70%)
CCCC(=O)Oc1c(C)nn(C)c(=O)c1-c1c(-c2ccc(OC(F)(F)F)cc2)sc2ccc(F)cc12 [2-046] | 5 (Herbicidal rate of 90% or more (almost completely withered))
Cc1nn(C)c(=O)c(-c2c(-c3ccc(OCCF)cc3)sc3ccc(F)cc23)c1O [2-047] | 4 (Herbicidal rate of 70% or more and less than 90%)

Tested on: southern crabgrass
Assay: Test Example 5: herbicidal effect by foliage application, plastic box (Table 20, symbol F)
Assay type: in vivo, southern crabgrass (Digitaria ciliaris)
Conditions: foliage application, 320 g/ha, 3 weeks after application
How it was run: (§4)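 Sow seeds spot-wise in sterilized diluvial soil; cover with ~1.5 cm soil. Grow 14 days in greenhouse, 25° C. to 30° C. Spray foliage with emulsion diluted to predetermined amount. Rate effect after 3 weeks.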

Structure (SMILES) | effect on southern crabgrass (F)
CCCCOc1ccc(-c2sc3ccc(F)cc3c2-c2c(O)c(C)nn(C)c2=O)cc1 [2-036] | 4 (Herbicidal rate of 70% or more and less than 90%)
CCCC(=O)Oc1c(C)nn(C)c(=O)c1-c1c(-c2ccc(OC(F)(F)F)cc2)sc2ccc(F)cc12 [2-046] | 0 (Herbicidal rate of 5% or less (almost no effect))
Cc1nn(C)c(=O)c(-c2c(-c3ccc(OCCF)cc3)sc3ccc(F)cc23)c1O [2-047] | 5 (Herbicidal rate of 90% or more (almost completely withered))

Tested on: green foxtail
Assay: Test Example 5: herbicidal effect by foliage application, plastic box (Table 20, symbol G)
Assay type: in vivo, green foxtail (Setaria viridis)
Conditions: foliage application, 320 g/ha, 3 weeks after application
How it was run: as §4

Structure (SMILES) | effect on green foxtail (G)
CCCCOc1ccc(-c2sc3ccc(F)cc3c2-c2c(O)c(C)nn(C)c2=O)cc1 [2-036] | 5 (Herbicidal rate of 90% or more (almost completely withered))
CCCC(=O)Oc1c(C)nn(C)c(=O)c1-c1c(-c2ccc(OC(F)(F)F)cc2)sc2ccc(F)cc12 [2-046] | 5 (Herbicidal rate of 90% or more (almost completely withered))
Cc1nn(C)c(=O)c(-c2c(-c3ccc(OCCF)cc3)sc3ccc(F)cc23)c1O [2-047] | 5 (Herbicidal rate of 90% or more (almost completely withered))

Tested on: barnyard grass
Assay: Test Example 5: herbicidal effect by foliage application, plastic box (Table 20, symbol H)
Assay type: in vivo, barnyard grass (Echinochloa crus-galli)
Conditions: foliage application, 320 g/ha, 3 weeks after application
How it was run: as §4

Structure (SMILES) | effect on barnyard grass (H)
CCCCOc1ccc(-c2sc3ccc(F)cc3c2-c2c(O)c(C)nn(C)c2=O)cc1 [2-036] | 5 (Herbicidal rate of 90% or more (almost completely withered))
CCCC(=O)Oc1c(C)nn(C)c(=O)c1-c1c(-c2ccc(OC(F)(F)F)cc2)sc2ccc(F)cc12 [2-046] | 5 (Herbicidal rate of 90% or more (almost completely withered))
Cc1nn(C)c(=O)c(-c2c(-c3ccc(OCCF)cc3)sc3ccc(F)cc23)c1O [2-047] | 5 (Herbicidal rate of 90% or more (almost completely withered))

Tested on: wild oat
Assay: Test Example 5: herbicidal effect by foliage application, plastic box (Table 20, symbol I)
Assay type: in vivo, wild oat (Avena fatua)
Conditions: foliage application, 320 g/ha, 3 weeks after application
How it was run: as §4

Structure (SMILES) | effect on wild oat (I)
CCCCOc1ccc(-c2sc3ccc(F)cc3c2-c2c(O)c(C)nn(C)c2=O)cc1 [2-036] | 4 (Herbicidal rate of 70% or more and less than 90%)
CCCC(=O)Oc1c(C)nn(C)c(=O)c1-c1c(-c2ccc(OC(F)(F)F)cc2)sc2ccc(F)cc12 [2-046] | 0 (Herbicidal rate of 5% or less (almost no effect))
Cc1nn(C)c(=O)c(-c2c(-c3ccc(OCCF)cc3)sc3ccc(F)cc23)c1O [2-047] | 3 (Herbicidal rate of 40% or more and less than 70%)

Tested on: windgrass
Assay: Test Example 5: herbicidal effect by foliage application, plastic box (Table 20, symbol L)
Assay type: in vivo, windgrass (Apera spica-venti)
Conditions: foliage application, 320 g/ha, 3 weeks after application
How it was run: as §4

Structure (SMILES) | effect on windgrass (L)
CCCCOc1ccc(-c2sc3ccc(F)cc3c2-c2c(O)c(C)nn(C)c2=O)cc1 [2-036] | 4 (Herbicidal rate of 70% or more and less than 90%)
CCCC(=O)Oc1c(C)nn(C)c(=O)c1-c1c(-c2ccc(OC(F)(F)F)cc2)sc2ccc(F)cc12 [2-046] | 0 (Herbicidal rate of 5% or less (almost no effect))
Cc1nn(C)c(=O)c(-c2c(-c3ccc(OCCF)cc3)sc3ccc(F)cc23)c1O [2-047] | 4 (Herbicidal rate of 70% or more and less than 90%)

Tested on: persian speedwell
Assay: Test Example 5: herbicidal effect by foliage application, plastic box (Table 20, symbol R)
Assay type: in vivo, Persian speedwell (Veronica persica)
Conditions: foliage application, 320 g/ha, 3 weeks after application
How it was run: as §4

Structure (SMILES) | effect on persian speedwell (R)
CCCCOc1ccc(-c2sc3ccc(F)cc3c2-c2c(O)c(C)nn(C)c2=O)cc1 [2-036] | 5 (Herbicidal rate of 90% or more (almost completely withered))
CCCC(=O)Oc1c(C)nn(C)c(=O)c1-c1c(-c2ccc(OC(F)(F)F)cc2)sc2ccc(F)cc12 [2-046] | 5 (Herbicidal rate of 90% or more (almost completely withered))
Cc1nn(C)c(=O)c(-c2c(-c3ccc(OCCF)cc3)sc3ccc(F)cc23)c1O [2-047] | 5 (Herbicidal rate of 90% or more (almost completely withered))
